# What was measured:
# [1] = pH of excipient solutions and of crushed EKB-569 tablet slurries; type: physicochemical; conditions: for pH at 0.1% excipient, Excipient Solution: 0.1% solution/suspension of basic excipient; for pH at 0.5% excipient, Excipient Solution: 0.5% solution/suspension of basic excipient; for pH at 1% excipient, Excipient Solution: 1% solution/suspension of basic excipient; for pH at 5% excipient, Excipient Solution: 5% solution/suspension of basic excipient
# Source text: The data in Table 3 supported testing improved stability of a pharmaceutical composition by lowering the pH of the pharmaceutical composition. […]
# [2] = Stability of EKB-569 solution (degradation rate constant in buffers); type: physicochemical; conditions: for EKB-569 degradation rate constant: 0.2 mg/mL in 0.02 M buffer with 50% Acetonitrile
# [3] = Solid state stability for EKB-569 drug substance at 56° C./75% RH; type: physicochemical; conditions: for % EKB-569 remaining / Total impurities: drug substance, 56° C./75% RH
# Method: A study was conducted at 56° C./75% RH for 2 weeks. The samples were filled into 2-ml flame sealed Kimble score-break ampules.
# [4] = Method: Compositions of tablets containing 0.5% and 0.1% of these excipients remain the same. Quantity of microcrystalline cellulose was adjusted to allow for the changes in the amounts of basic excipients. Tablets were manufactured using granulation.
# Tablets were stored at 40° C./75% RH for 1 month.
Compound,"pH at 0.1% excipient, Excipient Solution [1]","pH at 0.5% excipient, Excipient Solution [1]","pH at 1% excipient, Excipient Solution [1]","pH at 5% excipient, Excipient Solution [1]",further results
NC(CO)(CO)CO [Tromethamine],9.98,9.99,10.51,10.87,–
"O=C([O-])CN(CCN(CC(=O)[O-])CC(=O)[O-])CC(=O)[O-].[Na+].[Na+].[Na+].[Na+] [EDTA, tetra sodium]",10.55,10.84,10.94,10.75,–
"CCOc1cc2ncc(C#N)c(Nc3ccc(F)c(Cl)c3)c2cc1NC(=O)C=CCN(C)C [EKB-569, 4-dimethylamino-but-2-enoic acid [4-(3-chloro-4-fluoro-phenylamino)-3-cyano-7-ethoxy-quinolin-6-yl]-amide]",–,–,–,–,"EKB-569 degradation rate constant ([2]; pH 1.2 (HCl), 80° C.): 0.0013 h⁻¹; EKB-569 degradation rate constant ([2]; pH 3.0 (Phoshphate), 80° C.): 0.0003 h⁻¹; EKB-569 degradation rate constant ([2]; pH 5.0 (Acetate), 56° C.): 0.0008 h⁻¹; EKB-569 degradation rate constant ([2]; pH 5.0 (Acetate), 80° C.): 0.0113 h⁻¹; EKB-569 degradation rate constant ([2]; pH 7.4 (Phosphate), 56° C.): 0.003 h⁻¹; EKB-569 degradation rate constant ([2]; pH 7.4 (Phosphate), 80° C.): 0.0235 h⁻¹; EKB-569 degradation rate constant ([2]; pH 9 (Glycine), 56° C.): 0.0031 h⁻¹; EKB-569 degradation rate constant ([2]; pH 9 (Glycine), 80° C.): 0.0229 h⁻¹; stability in solution as a function of pH ([2]; pH range 1.2-9, 56° C. and 80° C.): more stable in acidic solution; stability in the solid state ([3]; 56° C./75% RH for 2 weeks): chemical instability in the solid state; % EKB-569 remaining ([3]; 3 Days): 98.1%; Total impurities ([3]; 3 Days): 1.1%; % EKB-569 remaining ([3]; 7 Days): 97.7%; Total impurities ([3]; 7 Days): 1.68%; % EKB-569 remaining ([3]; 14 Days): 97.1%; Total impurities ([3]; 14 Days): 2.62%; % EKB-569 remaining ([3]; Initial): 99.1%; Total impurities ([3]; Initial): 0.78%"
N=C(N)NCCC[C@H](N)C(=O)O [Arginine],10.18,10.57,10.91,11.23,–
OC[C@H]1O[C@@H](O[C@H]2[C@H](O)[C@@H](O)C(O)O[C@@H]2CO)[C@H](O)[C@@H](O)[C@H]1O (stereo partly shown) [lactose],–,–,–,–,effect on stability of EKB-569 pharmaceutical composition [4]: no effect on stability
O=C([O-])O.[Na+] [Sodium bicarbonate],8.69,8.56,8.34,8.18,–
O=C([O-])[O-].[Ca+2] [Calcium carbonate],8.95,8.93,9.02,9.12,–
O=C([O-])[O-].[Na+].[Na+] [Sodium carbonate],10.99,11.21,11.31,11.5,–
